How the values were obtained:
Test in all cases: Test C postemergence herbicide test
chickweed = assay type: in vivo, Stellaria media; details: for Chickweed plant response rating: 500 g ai/ha
Protocol: At the same time, plants selected from these crop and weed species and also winter barley (Hordeum vulgare L.), blackgrass (Alopecurus myosuroides Huds.), canarygrass (Phalaris minor Retz.), chickweed (Stellaria media (L.) Vill.), downy bromegrass (Bromus tectorum L.), green foxtail (Setaria viridis (L.) Beauv.), Italian ryegrass (Lolium multiflorum Lam.), wheat (Triticum aestivum L.), wild oat (Avenafatua L.) and windgrass (Apera spica-venti (L.) Beauv.) were treated with postemergence applications of some of the test chemicals formulated in the same manner. Plants ranged in height from 2 to 18 cm (1- to 4-leaf stage) for postemergence treatments. Plant species in the flooded paddy test consisted of rice (Oryza sativa), smallflower umbrella sedge (Cyperus difformis L.), ducksalad (Heteranthera limosa (Sw.) Willd.) and barnyardgrass (Echinochloa crus-galli (L.) Beauv.) grown to the 2-leaf stage for testing. Treated plants and controls were maintained in a greenhouse for 12 to 14 days, after which time all species were compared to controls and visually evaluated. Plant response ratings, summarized in Table C, are based on a scale of 0 to 100 where 0 is no effect and 100 is complete control. A dash (-) response means no test result.

winter barley = assay type: in vivo, Hordeum vulgare; details: for Barley, Winter plant response rating: 500 g ai/ha
Summary of the method: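 Greenhouse test with a 12–14 day hold after application and visual comparison with controls. Emerged plants were 1- to 4-leaf stage (2–18 cm) when sprayed postemergence, and the paddy barnyardgrass was at 2 leaves under flooded conditions. 100 = complete control.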

blackgrass = assay type: in vivo, Alopecurus myosuroides; details: for Blackgrass plant response rating: 500 g ai/ha
Summary of the method: (§1)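 After a postemergence application at 1 to 4 leaves (plants 2–18 cm high), or at 2 leaves for barnyardgrass in flooded paddy, plants stayed in the greenhouse for 12 to 14 days. Damage was then judged visually relative to control plants, with 100 indicating complete control.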

canarygrass = assay type: in vivo, Phalaris minor
Summary of the method: as §1

downy bromegrass = assay type: in vivo, Bromus tectorum
Summary of the method: as §1

green foxtail = assay type: in vivo, Setaria viridis
Summary of the method: as §1

Italian ryegrass = assay type: in vivo, Lolium multiflorum
Summary of the method: as §1

wheat = assay type: in vivo, Triticum aestivum
Summary of the method: as §1

wild oat = assay type: in vivo, Avenafatua
Summary of the method: as §1

windgrass = assay type: in vivo, Apera spica-venti
Summary of the method: as §1

[1] = Postemergence, 250 g ai/ha, scale 0 to 100, 0 no effect, 100 complete control
[2] = postemergence, 125 g ai/ha, scale 0 to 100
[3] = postemergence, 62 g ai/ha, scale 0 to 100
[4] = postemergence, 125 g ai/ha, scale 0 to 100 (0 no effect, 100 complete control)
[5] = postemergence, 62 g ai/ha, scale 0 to 100 (0 no effect, 100 complete control)
[6] = Postemergence, 500 g ai/ha, scale 0 to 100
[7] = postemergence, 31 g ai/ha, scale 0 to 100
[8] = Postemergence, 500 g ai/ha, scale 0 to 100, 0 no effect, 100 complete control

SMILES | Chickweed plant response rating (chickweed; Postemergence, scale 0 to 100) | Plant response rating, Chickweed (chickweed; [1]) | Plant response rating, Chickweed (chickweed; [2]) | Plant response rating, Chickweed (chickweed; [3]) | Plant response rating, Barley, Winter (winter barley; [1]) | Plant response rating, Barley, Winter (winter barley; [4]) | Plant response rating, Barley, Winter (winter barley; [5]) | Plant response rating, Blackgrass (blackgrass; [1]) | Plant response rating, Blackgrass (blackgrass; [2]) | Plant response rating, Blackgrass (blackgrass; [3]) | Plant response rating, Canarygrass (canarygrass; [1]) | Plant response rating, Canarygrass (canarygrass; [2]) | Plant response rating, Canarygrass (canarygrass; [3]) | Plant response rating, Bromegrass, Downy (downy bromegrass; [1]) | Plant response rating, Bromegrass, Downy (downy bromegrass; [2]) | Plant response rating, Bromegrass, Downy (downy bromegrass; [3]) | Plant response rating, Foxtail, Green (green foxtail; [1]) | Plant response rating, Foxtail, Green (green foxtail; [2]) | Plant response rating, Foxtail, Green (green foxtail; [3]) | Plant response rating, Ryegrass, Italian (Italian ryegrass; [2]) | also measured
C=CCOC(=O)c1cccc(NC(=O)c2cc(C(C)(C)C)nn2CC)c1 [Compound 85] | 100 | 100 | 100 | 100 | – | – | – | – | – | – | – | – | – | – | – | – | – | – | – | – | –
CCn1nc(C(C)(C)C)cc1C(=O)Nc1cccc(OC(F)(F)F)c1 [Compound 272] | 100 | 100 | 100 | 95 | 35 | 35 | 35 | 45 | 45 | 35 | 40 | 35 | 35 | 60 | 55 | 30 | 45 | 40 | 35 | 45 | Barley, Winter plant response rating (winter barley; Postemergence, scale 0 to 100): 35; Blackgrass plant response rating (blackgrass; Postemergence, scale 0 to 100): 65; Canarygrass plant response rating (canarygrass; [6]): 55; Bromegrass, Downy plant response rating (downy bromegrass; [6]): 65; Foxtail, Green plant response rating (green foxtail; [6]): 60; Ryegrass, Italian plant response rating (Italian ryegrass; [6]): 60; Plant response rating, Ryegrass, Italian (Italian ryegrass; [1]): 45; Plant response rating, Ryegrass, Italian (Italian ryegrass; [3]): 30; Wheat plant response rating (wheat; [6]): 35; Plant response rating, Wheat (wheat; [1]): 35; Plant response rating, Wheat (wheat; [2]): 35; Plant response rating, Wheat (wheat; [3]): 30; Oat, Wild plant response rating (wild oat; [6]): 65; Plant response rating, Oat, Wild (wild oat; [1]): 55; Plant response rating, Oat, Wild (wild oat; [2]): 45; Plant response rating, Oat, Wild (wild oat; [3]): 40; Windgrass plant response rating (windgrass; [6]): 85; Plant response rating, Windgrass (windgrass; [2]): 70; Plant response rating, Windgrass (windgrass; [3]): 60
C#CCOC(=O)c1cccc(NC(=O)c2cc(C(C)(C)C)nn2CC)c1 [Compound 84] | 70 | 70 | 50 | 0 | – | – | – | – | – | – | – | – | – | – | – | – | – | – | – | – | –
CCn1nc(C(C)(C)C)cc1C(=O)Nc1cccc(C(=O)OC)c1 [Compound 81] | – | 100 | 95 | 95 | – | – | – | – | – | – | – | – | – | – | – | – | – | – | – | – | Plant response rating, Chickweed (chickweed; [7]): 90
CCn1nc(C(C)(C)C)cc1C(=O)Nc1ccc(F)c(C(=O)NCCF)c1 [Compound 60] | – | 10 | 10 | 5 | – | – | – | – | – | – | – | – | – | – | – | – | – | – | – | – | Plant response rating, Chickweed (chickweed; [7]): 5
CCn1nc(C(C)(C)C)cc1C(=O)Nc1cccc(C(=O)NC2CC2)n1 [Compound 146] | – | 100 | 80 | 10 | – | – | – | – | – | – | – | – | – | – | – | – | – | – | – | – | –
CC(=NO)c1cccc(NC(=O)c2cc(C(C)(C)C)nn2CC(F)(F)F)c1 [Compound 112] | 100 | 100 | 10 | 0 | – | – | – | – | – | – | – | – | – | – | – | – | – | – | – | – | –
C#CCOc1cccc(NC(=O)c2cc(C(C)(C)C)nn2CC)c1 [Compound 411] | – | – | – | – | 35 | 35 | 30 | 65 | 65 | 50 | 65 | 60 | 60 | 45 | 40 | 40 | 65 | 65 | 60 | 60 | Barley, Winter plant response rating (winter barley; Postemergence, scale 0 to 100): 40; Blackgrass plant response rating (blackgrass; Postemergence, scale 0 to 100): 70; Plant response rating, Canarygrass (canarygrass; [8]): 65; Plant response rating, Bromegrass, Downy (downy bromegrass; [8]): 45; Plant response rating, Foxtail, Green (green foxtail; [8]): 70; Plant response rating, Ryegrass, Italian (Italian ryegrass; [8]): 65; Plant response rating, Ryegrass, Italian (Italian ryegrass; [3]): 45; Plant response rating, Wheat (wheat; [8]): 55; Plant response rating, Wheat (wheat; [2]): 35; Plant response rating, Wheat (wheat; [3]): 35; Plant response rating, Oat, Wild (wild oat; [8]): 65; Plant response rating, Oat, Wild (wild oat; [2]): 60; Plant response rating, Oat, Wild (wild oat; [3]): 60; Plant response rating, Windgrass (windgrass; [8]): 65; Plant response rating, Windgrass (windgrass; [2]): 55; Plant response rating, Windgrass (windgrass; [3]): 40
CCn1nc(C(C)(C)C)cc1C(=O)Nc1cccc(C#N)c1 [Compound 139] | – | 80 | 70 | 0 | – | – | – | – | – | – | – | – | – | – | – | – | – | – | – | – | Plant response rating, Chickweed (chickweed; [7]): 0
C#CCNC(=O)c1cccc(NC(=O)c2nn(C(C)(C)C)nc2CC)c1 [Compound 380] | – | – | – | – | 30 | 20 | 20 | 55 | 45 | 40 | 45 | 40 | 40 | 65 | 60 | 55 | 60 | 60 | 60 | 50 | Plant response rating, Barley, Winter (winter barley; [7]): 10; Plant response rating, Blackgrass (blackgrass; [7]): 40; Plant response rating, Canarygrass (canarygrass; [7]): 30; Plant response rating, Bromegrass, Downy (downy bromegrass; [7]): 45; Plant response rating, Ryegrass, Italian (Italian ryegrass; [3]): 45; Plant response rating, Wheat (wheat; [2]): 25; Plant response rating, Wheat (wheat; [3]): 20; Plant response rating, Oat, Wild (wild oat; [2]): 60; Plant response rating, Oat, Wild (wild oat; [3]): 55; Plant response rating, Windgrass (windgrass; [2]): 60; Plant response rating, Windgrass (windgrass; [3]): 45
